Source: the Kinase Knowledgebase extract (Sharma et al. 2016)

Target: MAPK14 (human) (UniProt Q16539)
Assay: Inhibition of MAPK14 Kinase Activity
Details: for inhibition: concentration not given here

Sequence of MAPK14 (human) (Q16539 whole entry, looked up): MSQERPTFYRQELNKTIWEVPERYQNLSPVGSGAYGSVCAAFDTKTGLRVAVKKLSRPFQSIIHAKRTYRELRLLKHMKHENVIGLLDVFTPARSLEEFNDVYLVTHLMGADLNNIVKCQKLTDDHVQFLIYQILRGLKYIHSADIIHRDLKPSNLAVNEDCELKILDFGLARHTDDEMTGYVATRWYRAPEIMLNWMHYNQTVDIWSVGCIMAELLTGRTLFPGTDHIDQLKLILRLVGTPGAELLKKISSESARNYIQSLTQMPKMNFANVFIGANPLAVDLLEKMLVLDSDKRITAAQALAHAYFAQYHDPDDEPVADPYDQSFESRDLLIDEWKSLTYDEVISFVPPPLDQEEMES

Row | Structure (SMILES) | IC50 [µM] | inhibition [%]
1 | CC(C)(C)c1cc(C(=O)N2CCNC(=O)CC2)c(NC(=O)Nc2ccc(OC(F)F)c(Cl)c2Cl)s1 | < 5 | 
2 | CC(C)(C)c1cc(C(=O)N2CCNC(=O)CC2)c(NC(=O)NC2CCNCC2)s1 |  | 0 to 25
3 | CC(C)(C)c1cc(C(=O)N2CCNC(=O)C2(C)C)c(NC(=O)Nc2ccc3c(c2Cl)OCO3)s1 | < 5 | 
4 | COC(=O)CN1CCN(C(=O)c2[nH]c(C(C)(C)C)cc2NC(=O)Nc2cccc(Cl)c2Cl)C(C)(C)C1=O | < 5 | 
5 | CC(C)(C)c1cc(C(=O)N2CCNC(=O)CC2)c(NC(=O)Nc2cccnc2Cl)s1 | < 5 | 
6 | CCC1C(=O)NCCN1C(=O)c1cc(C(C)(C)C)sc1NC(=O)Nc1ccc(F)c(Cl)c1Cl (centres undefined) | < 5 | 
7 | CN(C)CCNC(=O)CN1CCN(C(=O)c2sc(C(C)(C)C)cc2NC(=O)Nc2ccnc(Cl)c2Cl)C(C)(C)C1=O | < 5 | 
8 | CCc1ccccc1NC(=O)Nc1sc(C(C)(C)C)cc1C(=O)N1CCC(=O)N(CCN(C)C)CC1 | < 5 | 
9 | CC(C)(C)c1cc(NC(=O)Nc2cccc(Cl)c2Cl)c(C(=O)N2CCNC(=O)C2(C)C)o1 | < 5 | 
10 | COCOCCN1CCN(C(=O)c2cc(C(C)(C)C)sc2NC(=O)Nc2cccc(Cl)c2Cl)C(C)(C)C1=O | < 5 | 
11 | CC(C)(C)c1cc(C(=O)N2CCNC(=O)CC2)c(NC(=O)Nc2ccc(F)cc2Cl)s1 | < 5 | 
12 | CC1(C)OCC(CN2CCN(C(=O)c3cc(C(C)(C)C)sc3NC(=O)Nc3cccc(Cl)c3Cl)CCC2=O)O1 (centres undefined) |  | 76 to 100
13 | CC(C)(C)c1cc(C(=O)N2CCNC(=O)C2(C)C)c(NC(=O)Nc2ccccc2Cl)s1 | < 5 | 
14 | CC(C)(C)c1nc(C(=O)N2CCNC(=O)C2(C)C)c(NC(=O)Nc2cccc(Cl)c2Cl)s1 | < 5 | 
15 | CN1CCN(C(=O)c2cc(C(C)(C)C)sc2NC(=O)Nc2cccc(Cl)c2Cl)C(C)(C)C1=O | < 5 | 
16 | CC(C)(C)c1cc(C(=O)N2CCNC(=O)C(N)C2)c(NC(=O)Nc2cccc(Cl)c2Cl)s1 (centres undefined) |  | 76 to 100
17 | CC(C)(C)c1cc(C(=O)N2CCCN(S(C)(=O)=O)CC2)c(NC(=O)Nc2cccc(Cl)c2Cl)s1 | < 5 | 
18 | CON(C)C(=O)CN1CCN(C(=O)c2cc(C(C)(C)C)sc2NC(=O)Nc2cccc(Cl)c2Cl)C(C)(C)C1=O | < 5 | 
19 | COc1ccccc1NC(=O)Nc1sc(C(C)(C)C)cc1C(=O)N1CCN(CCN(C)C)C(=O)C1(C)C | < 5 | 
20 | CC(C)(C)c1cc(NC(=O)Nc2cccc(Cl)c2Cl)c(C(=O)N2CCN(CC(N)=O)C(=O)C2(C)C)[nH]1 | < 5 | 
21 | CC(C)(C)c1nc(C(=O)N2CCNC(=O)C2)c(NC(=O)Nc2cccc(Cl)c2Cl)s1 | < 5 | 

Row | Structure (SMILES) | IC50 [µM] | inhibition [%]
22 | CN(C)CCN1CCN(C(=O)c2cc(C(C)(C)C)sc2NC(=O)Nc2ccc(F)cc2Cl)CCC1=O | < 5 | 
23 | Cc1noc(CN2CCN(C(=O)c3cc(C(C)(C)C)sc3NC(=O)Nc3cccc(Cl)c3Cl)C(C)(C)C2=O)n1 | < 5 | 
24 | CC(C)(C)c1cc(C(=O)N2CCNS(=O)(=O)CC2)c(NC(=O)NC2(c3ccccc3)CC2)s1 |  | 26 to 50
25 | CN1CCN(C(=O)c2oc(C(C)(C)C)cc2NC(=O)Nc2cccc(Cl)c2Cl)CCS1(=O)=O | < 5 | 
26 | CN(C)CCNC(=O)CN1CCN(C(=O)c2cc(C(C)(C)C)sc2NC(=O)Nc2ccc(F)cc2Cl)C(C)(C)C1=O | < 5 | 
27 | CC(C)(C)c1cc(C(=O)N2CCCC(O)C2)c(NC(=O)Nc2cccc(Cl)c2Cl)s1 (centres undefined) | < 5 | 
28 | CC(C)(C)c1cc(C(=O)NCC(F)(F)F)c(NC(=O)Nc2cccc(Cl)c2Cl)s1 | < 5 | 
29 | Cc1noc(CN2CCN(C(=O)c3cc(C(C)(C)C)sc3NC(=O)Nc3ccc(F)c(Cl)c3Cl)C(C)(C)C2=O)n1 | < 5 | 
30 | CC(C)(C)c1cc(C(=O)N2CCNC(=O)CC2)c(NC(=O)Nc2ccccc2C(F)(F)F)s1 | < 5 | 
31 | CC(C)(C)c1cc(C(=O)N2CC(=O)NC(CO)C2)c(NC(=O)Nc2cccc(Cl)c2Cl)s1 (centres undefined) | < 5 | 
32 | CONC(=O)CC1(C)C(=O)NCCN1C(=O)c1cc(C(C)(C)C)sc1NC(=O)Nc1ccc(F)c(Cl)c1Cl (centres undefined) | < 5 | 
33 | CN(C)CCN1CCN(C(=O)c2cc(C(C)(C)C)sc2NC(=O)Nc2c(Cl)cncc2Cl)CCC1=O | < 5 | 
34 | CC(C)(C)c1cc(C(=O)N2CCNC(=O)C2(C)C)c(NC(=O)Nc2ccc(F)c(Cl)c2Cl)s1 | < 5 | 
35 | CN(C)CCCCCN1CCN(C(=O)c2cc(C(C)(C)C)sc2NC(=O)Nc2cccc(Cl)c2Cl)C(C)(C)C1=O | < 5 | 
36 | CC(C)(C)OC(=O)N1CCN(C(=O)c2cc(C(C)(C)C)sc2NC(=O)Nc2cccc(Cl)c2Cl)CC1 | < 5 | 
37 | CCC1(C)C(=O)N(CC(=O)N2CCN(C)CC2)CCN1C(=O)c1cc(C(C)(C)C)sc1NC(=O)Nc1cccc(Cl)c1Cl (centres undefined) | < 5 | 
38 | COc1ccc(CC(=O)N2CCN(C(=O)c3cc(C(C)(C)C)sc3NC(=O)Nc3cccc(Cl)c3Cl)CC2)cc1 | < 5 | 
39 | Cc1cccc(NC(=O)Nc2sc(C(C)(C)C)cc2C(=O)N2CCNC(=O)CC2)c1 |  | 76 to 100
40 | Cc1ccccc1NC(=O)Nc1sc(C(C)(C)C)cc1C(=O)N1CCC(=O)N(CCN(C)C)CC1 | < 5 | 
41 | CC(C)(C)c1cc(NC(=O)Nc2cccc(Cl)c2Cl)c(C(=O)N2CCNS(=O)(=O)CC2)o1 | < 5 | 
42 | CC(C)(C)c1cc(C(=O)N2CCN(CC(N)=O)C(=O)C2(C)CC(N)=O)c(NC(=O)Nc2cccc(Cl)c2Cl)s1 (centres undefined) | < 5 | 

Row | Structure (SMILES) | IC50 [µM] | inhibition [%]
43 | CC(C)(C)c1cc(C(=O)N2CCNC(=O)C2(C)C)c(NC(=O)Nc2c(Cl)cncc2Cl)s1 | < 5 | 
44 | CC(C)(C)c1cc(C(=O)N2CCNC(=O)C2(C)C)c(NC(=O)Nc2ccc3c(c2)OCO3)s1 | < 5 | 
45 | CN(C)CCN1CCN(C(=O)c2oc(C(C)(C)C)cc2NC(=O)Nc2cccc(Cl)c2Cl)CCS1(=O)=O | < 5 | 
46 | CC(C)(C)c1cc(C(=O)N2CCNC(=O)CC2)c(NC(=O)Nc2ccccc2Br)s1 | < 5 | 
47 | CC(C)(C)c1cc(C(=O)N2CCNC(=O)CC2)c(NC(=O)Nc2ccccc2C(C)(C)C)s1 | < 5 | 
48 | COc1cccc(NC(=O)Nc2sc(C(C)(C)C)cc2C(=O)N2CCN(CCN(C)C)C(=O)C2(C)C)c1Cl | < 5 | 
49 | CN1CCN(C(=O)c2cc(C(C)(C)C)n(C)c2NC(=O)Nc2cccc(Cl)c2Cl)C(C)(C)C1=O | < 5 | 
50 | CC(C)(C)c1cc(C(=O)N2CCNC(=O)CC2)c(NC(=O)Nc2ccccc2I)s1 | < 5 | 
51 | O=C(Nc1cc(C(F)(F)F)ccc1C(=O)N1CCS(=O)(=O)CC1)Nc1cccc(Cl)c1Cl | < 5 | 
52 | CC(C)(C)c1cc(C(=O)N2CCNC(=O)C2)c(NC(=O)Nc2cccc3ccccc23)s1 |  | 76 to 100
53 | CC(C)(C)c1cc(C(=O)N2CCNC(=O)C2(C)CC(=O)O)c(NC(=O)Nc2cccc(Cl)c2Cl)s1 (centres undefined) | < 5 | 
54 | CC(C)c1ccccc1NC(=O)Nc1sc(C(C)(C)C)cc1C(=O)N1CCNC(=O)CC1 | < 5 | 
55 | CC(C)(C)c1cc(C(=O)N2CCC(=O)N(CCC(N)=O)CC2)c(NC(=O)Nc2cccc(Cl)c2Cl)s1 |  | 76 to 100
56 | CN(C)CCN1CCN(C(=O)c2cc(C(C)(C)C)sc2NC(=O)Nc2ccccc2C(C)(C)C)CCC1=O | < 5 | 
57 | CCC1(C)C(=O)NCCN1C(=O)c1cc(C(C)(C)C)sc1NC(=O)Nc1cccc(Cl)c1Cl (centres undefined) | < 5 | 
58 | CC(C)(C)c1cc(C(=O)N2CCNS(=O)(=O)CC2)c(NC(=O)Nc2ccc(C#N)cc2C(F)(F)F)s1 |  | 76 to 100
59 | O=C1CCN(C(=O)c2cc(Cl)c(C(F)(F)F)cc2NC(=O)Nc2cccc(Cl)c2Cl)CCN1 | < 5 | 
60 | CN(C)CCN1CCN(C(=O)c2cc(C(C)(C)C)sc2NC(=O)Nc2ccccc2C(F)(F)F)C(C)(C)C1=O | < 5 | 
61 | CC(C)(C)c1cc(C(=O)N2CCNC(=O)CC2)c(NC(=O)Nc2ccc(CN)c3ccccc23)s1 |  | 76 to 100
62 | CCC1(C)C(=O)N(CC(=O)NCCN(C)C)CCN1C(=O)c1cc(C(C)(C)C)sc1NC(=O)Nc1ccc(F)cc1Cl (centres undefined) | < 5 | 
63 | CCN(CC)CCNC(=O)CN1CCN(C(=O)c2cc(C(C)(C)C)sc2NC(=O)Nc2cccc(Cl)c2Cl)C(C)(C)C1=O | < 5 | 

Row | Structure (SMILES) | IC50 [µM] | inhibition [%]
64 | CC(C)(C)c1cc(C(=O)N2CCNC(=O)CC2)c(NC(=O)Nc2ccc3c(c2Cl)OCO3)s1 | < 5 | 
65 | CC(C)(C)c1cc(C(=O)N2CCN(CC(O)CO)C(=O)C2(C)C)c(NC(=O)Nc2cccc(Cl)c2Cl)s1 (centres undefined) | < 5 | 
66 | Cc1ccccc1NC(=O)Nc1sc(C(C)(C)C)cc1C(=O)N1CCNC(=O)C1(C)C | < 5 | 
67 | CC(C)(C)c1cc(C(=O)N2CCNC(=O)CC2)c(NC(=O)Nc2ccc(C#N)c(Cl)c2Cl)s1 | < 5 | 
68 | CN(C)CCN1CCN(C(=O)c2cc(C(C)(C)C)sc2NC(=O)Nc2ccncc2Cl)C(C)(C)C1=O | < 5 | 
69 | CN1CCN(C(=O)c2cc(C(C)(C)C)sc2NC(=O)Nc2cccc(Cl)c2Cl)C(C)(CC(N)=O)C1=O (centres undefined) | < 5 | 
70 | CC(C)(C)c1cc(C(=O)N2CCNC(=O)CC2)c(NC(=O)Nc2c(Cl)cncc2Cl)s1 | < 5 | 
71 | COC(=O)CN1CCN(C(=O)c2cc(C(C)(C)C)sc2NC(=O)Nc2ccc(F)c(Cl)c2Cl)C(C)(C)C1=O | < 5 | 
72 | CC(C)(C)c1cc(C(=O)N2CCN(CC(=O)NCC3CC3)C(=O)C2(C)C)c(NC(=O)Nc2cccc(Cl)c2Cl)s1 | < 5 | 
73 | COc1ccccc1NC(=O)Nc1sc(C(C)(C)C)cc1C(=O)N1CCNC(=O)CC1 | < 5 | 
74 | CCOC(=O)C1(C)C(=O)NCCN1C(=O)c1cc(C(C)(C)C)sc1NC(=O)Nc1cccc(Cl)c1Cl (centres undefined) | < 5 | 
75 | CC(C)(C)OC(=O)N1CCN(C(=O)c2cc(C(C)(C)C)sc2NC(=O)Nc2cccc(Cl)c2Cl)CC1(C)C | < 5 | 
76 | CC(C)(C)c1cc(C(=O)N2CCNC(=O)CC2)c(NC(=O)Nc2ccc3ocnc3c2)s1 |  | 76 to 100
77 | CC(C)(C)c1cc(C(=O)N[C@@H]2CC(=O)NC2=O)c(NC(=O)Nc2ccc3ccccc3c2)s1 |  | 76 to 100
78 | CC(C)(C)c1cc(C(=O)N2CCNC(=O)C2(C)C)c(NC(=O)Nc2ccc(Cl)cc2Cl)s1 | < 5 | 
79 | CN(C)CCN1CCN(C(=O)c2cc(C(C)(C)C)sc2NC(=O)Nc2c(Cl)cncc2Cl)C(C)(C)C1=O | < 5 | 
80 | CN(C)CCN1CCN(C(=O)c2cc(C(C)(C)C)sc2NC(=O)Nc2ccc(F)c(Cl)c2Cl)C(C)(C)C1=O | < 5 | 
81 | CC(C)(C)c1cc(C(=O)N2CCNC(=O)C2CC(N)=O)c(NC(=O)Nc2cccc(Cl)c2Cl)s1 (centres undefined) | < 5 | 
82 | CC(C)(C)c1cc(C(=O)N2CCNC(=O)CC2)c(NC(=O)Nc2cc(F)cc(F)c2)s1 | < 5 | 
83 | CON(C)C(=O)CN1CCN(C(=O)c2cc(C(C)(C)C)sc2NC(=O)Nc2ccc(F)c(F)c2Cl)C(C)(C)C1=O | < 5 | 
84 | CC(C)(C)c1nc(C(=O)N2CCNC(=O)C2(C)C)c(NC(=O)Nc2ccc(F)c(Cl)c2Cl)s1 | < 5 | 
